In US20250034216A1, “STEREOSELECTIVE COVALENT LIGANDS FOR ONCOGENIC AND IMMUNOLOGICAL PROTEINS” (The Scripps Research Institute, priority 2021, published 2025):

How the values were obtained:
Assay in all cases: IA-DTB cysteine engagement
Assay type in all cases: binding
COX6B1_C54 = target: T1, COX6B1_C54 (Homo sapiens, UniProt P14854); details: 22Rv1 cells, 20 μM probe, 1 h, relative to DMSO
T1 construct: endogenous in cells; host or cells: 22Rv1
Outline: (§1)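 First, cells are exposed to electrophilic probes in situ. Next, lysates are labeled with IA-DTB (1 h, ambient temperature), reduced, alkylated and trypsin-digested. Then, IA-DTB peptides are enriched on streptavidin, TMT-labeled and analyzed, with ratios taken against DMSO channels.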

DCAF1_C1113 = target: T2, DCAF1_C1113 (Homo sapiens, UniProt Q9Y4B6); details: 22Rv1 cells, 20 μM probe, 1 h, relative to DMSO
T2 construct: endogenous in cells; host or cells: 22Rv1
T2 sequence (Q9Y4B6 whole entry): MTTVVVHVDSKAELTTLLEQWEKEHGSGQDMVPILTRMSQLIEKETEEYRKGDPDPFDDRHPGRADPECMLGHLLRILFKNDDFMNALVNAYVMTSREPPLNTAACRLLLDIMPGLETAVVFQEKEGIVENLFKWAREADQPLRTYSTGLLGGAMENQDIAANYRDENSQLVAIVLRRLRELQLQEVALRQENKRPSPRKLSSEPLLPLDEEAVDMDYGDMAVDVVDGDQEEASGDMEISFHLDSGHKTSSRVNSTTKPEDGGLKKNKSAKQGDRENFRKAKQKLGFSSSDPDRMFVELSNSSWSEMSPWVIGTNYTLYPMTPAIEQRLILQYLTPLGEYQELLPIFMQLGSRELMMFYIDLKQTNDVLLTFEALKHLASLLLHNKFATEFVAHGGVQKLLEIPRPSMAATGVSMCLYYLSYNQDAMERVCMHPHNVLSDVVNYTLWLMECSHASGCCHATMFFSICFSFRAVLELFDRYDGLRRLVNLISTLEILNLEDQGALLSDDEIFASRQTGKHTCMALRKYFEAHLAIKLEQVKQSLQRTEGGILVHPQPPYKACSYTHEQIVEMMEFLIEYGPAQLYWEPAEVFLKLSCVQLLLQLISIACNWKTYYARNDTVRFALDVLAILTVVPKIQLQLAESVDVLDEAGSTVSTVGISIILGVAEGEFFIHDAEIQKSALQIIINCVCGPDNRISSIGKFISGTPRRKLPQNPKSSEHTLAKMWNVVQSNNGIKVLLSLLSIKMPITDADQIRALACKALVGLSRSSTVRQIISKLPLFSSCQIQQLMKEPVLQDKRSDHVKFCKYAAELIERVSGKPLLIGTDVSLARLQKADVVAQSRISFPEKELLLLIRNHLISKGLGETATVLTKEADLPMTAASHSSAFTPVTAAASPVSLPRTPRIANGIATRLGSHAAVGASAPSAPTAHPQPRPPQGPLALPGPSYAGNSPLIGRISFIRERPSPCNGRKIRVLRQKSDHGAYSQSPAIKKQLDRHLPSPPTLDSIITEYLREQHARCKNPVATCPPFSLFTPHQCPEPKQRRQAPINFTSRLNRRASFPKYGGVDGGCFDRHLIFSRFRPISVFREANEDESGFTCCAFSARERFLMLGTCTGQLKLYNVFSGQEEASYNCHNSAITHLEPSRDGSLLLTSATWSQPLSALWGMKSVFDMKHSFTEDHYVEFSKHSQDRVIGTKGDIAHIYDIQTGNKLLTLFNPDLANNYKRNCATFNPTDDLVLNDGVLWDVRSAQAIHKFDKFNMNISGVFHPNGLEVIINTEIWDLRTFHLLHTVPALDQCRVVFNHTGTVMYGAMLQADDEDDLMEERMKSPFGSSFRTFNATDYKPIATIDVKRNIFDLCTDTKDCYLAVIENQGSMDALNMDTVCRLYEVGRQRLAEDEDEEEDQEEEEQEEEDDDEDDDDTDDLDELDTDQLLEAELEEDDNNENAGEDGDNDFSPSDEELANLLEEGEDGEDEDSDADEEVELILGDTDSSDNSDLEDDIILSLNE
Outline: as §1

MAGI1_C526 = target: T3, MAGI1_C526 (Homo sapiens, UniProt Q96QZ7); details: 22Rv1 cells, 20 μM probe, 1 h, relative to DMSO
T3 construct: endogenous in cells; host or cells: 22Rv1
T3 sequence (Q96QZ7 whole entry): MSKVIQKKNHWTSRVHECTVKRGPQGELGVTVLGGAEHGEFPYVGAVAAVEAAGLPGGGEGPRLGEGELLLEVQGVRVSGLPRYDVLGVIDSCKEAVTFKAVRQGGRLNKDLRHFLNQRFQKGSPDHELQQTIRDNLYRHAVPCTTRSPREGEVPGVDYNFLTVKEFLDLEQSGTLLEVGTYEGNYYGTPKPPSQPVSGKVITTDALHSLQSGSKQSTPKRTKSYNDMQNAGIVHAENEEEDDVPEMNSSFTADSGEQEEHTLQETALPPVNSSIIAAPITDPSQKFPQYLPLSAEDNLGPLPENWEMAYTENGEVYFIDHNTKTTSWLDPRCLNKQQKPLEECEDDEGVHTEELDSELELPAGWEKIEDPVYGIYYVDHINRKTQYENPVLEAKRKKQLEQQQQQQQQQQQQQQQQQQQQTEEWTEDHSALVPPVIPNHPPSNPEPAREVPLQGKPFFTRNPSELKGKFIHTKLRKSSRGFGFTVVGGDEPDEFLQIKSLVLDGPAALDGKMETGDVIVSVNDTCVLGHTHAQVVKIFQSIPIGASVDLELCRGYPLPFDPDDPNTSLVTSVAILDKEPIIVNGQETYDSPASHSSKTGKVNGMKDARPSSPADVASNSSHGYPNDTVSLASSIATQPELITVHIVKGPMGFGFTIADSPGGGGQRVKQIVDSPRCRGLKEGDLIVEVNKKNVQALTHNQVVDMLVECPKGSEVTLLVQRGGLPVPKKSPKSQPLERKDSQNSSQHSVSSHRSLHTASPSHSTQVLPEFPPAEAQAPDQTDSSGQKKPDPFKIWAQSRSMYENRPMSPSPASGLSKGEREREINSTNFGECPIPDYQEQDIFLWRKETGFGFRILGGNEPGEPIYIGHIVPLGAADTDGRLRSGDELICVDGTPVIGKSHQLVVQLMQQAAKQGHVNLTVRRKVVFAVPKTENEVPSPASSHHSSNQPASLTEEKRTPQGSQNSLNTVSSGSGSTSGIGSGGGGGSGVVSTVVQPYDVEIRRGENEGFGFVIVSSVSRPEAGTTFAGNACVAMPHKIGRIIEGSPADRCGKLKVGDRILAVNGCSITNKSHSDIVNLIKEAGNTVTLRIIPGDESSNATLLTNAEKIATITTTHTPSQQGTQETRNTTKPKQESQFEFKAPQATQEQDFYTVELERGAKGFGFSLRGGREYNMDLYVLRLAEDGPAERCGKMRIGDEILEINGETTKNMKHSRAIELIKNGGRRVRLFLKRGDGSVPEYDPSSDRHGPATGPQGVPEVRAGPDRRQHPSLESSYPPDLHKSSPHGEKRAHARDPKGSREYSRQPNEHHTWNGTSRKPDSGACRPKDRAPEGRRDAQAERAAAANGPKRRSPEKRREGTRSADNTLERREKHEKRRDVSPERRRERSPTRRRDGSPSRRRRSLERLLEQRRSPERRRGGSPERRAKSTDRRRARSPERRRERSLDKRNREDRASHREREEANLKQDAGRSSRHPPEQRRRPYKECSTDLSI
Outline: as §1

PRXL2A_C85 = target: T4, PRXL2A_C85 (Homo sapiens, UniProt Q9BRX8); details: 22Rv1 cells, relative to DMSO; for % engagement PRXL2A_C85: 20 μM probe, 1 h; for % engagement PRXL2A_85: 5 μM probe, 1 h (FIG. 5B)
T4 construct: endogenous in cells; host or cells: 22Rv1
T4 sequence (Q9BRX8 1-229): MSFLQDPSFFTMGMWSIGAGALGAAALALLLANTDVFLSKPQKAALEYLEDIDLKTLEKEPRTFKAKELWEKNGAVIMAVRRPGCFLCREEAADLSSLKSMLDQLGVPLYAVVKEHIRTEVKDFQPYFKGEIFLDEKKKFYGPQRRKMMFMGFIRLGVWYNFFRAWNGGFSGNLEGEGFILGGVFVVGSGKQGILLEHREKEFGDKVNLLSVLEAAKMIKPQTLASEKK
Outline: as §1

REEP5_C18 = target: T5, REEP5_C18 (Homo sapiens, UniProt Q00765); details: 22Rv1 cells, relative to DMSO; for % engagement REEP5_C18: 20 μM probe, 1 h; for % engagement REEP5_18: 5 μM probe, 1 h (FIG. 5B)
T5 construct: endogenous in cells; host or cells: 22Rv1
Outline: as §1

TRMT61A_C209 = target: T6, TRMT61A_C209 (Homo sapiens, UniProt Q96FX7); details: 22Rv1 cells, 20 μM probe, 1 h, relative to DMSO
T6 construct: endogenous in cells; host or cells: 22Rv1
Outline: as §1

ZFC3H1_C1778 = target: T7, ZFC3H1_C1778 (Homo sapiens, UniProt O60293); details: 22Rv1 cells, 20 μM probe, 1 h, relative to DMSO
T7 construct: endogenous in cells; host or cells: 22Rv1
T7 sequence (O60293 whole entry): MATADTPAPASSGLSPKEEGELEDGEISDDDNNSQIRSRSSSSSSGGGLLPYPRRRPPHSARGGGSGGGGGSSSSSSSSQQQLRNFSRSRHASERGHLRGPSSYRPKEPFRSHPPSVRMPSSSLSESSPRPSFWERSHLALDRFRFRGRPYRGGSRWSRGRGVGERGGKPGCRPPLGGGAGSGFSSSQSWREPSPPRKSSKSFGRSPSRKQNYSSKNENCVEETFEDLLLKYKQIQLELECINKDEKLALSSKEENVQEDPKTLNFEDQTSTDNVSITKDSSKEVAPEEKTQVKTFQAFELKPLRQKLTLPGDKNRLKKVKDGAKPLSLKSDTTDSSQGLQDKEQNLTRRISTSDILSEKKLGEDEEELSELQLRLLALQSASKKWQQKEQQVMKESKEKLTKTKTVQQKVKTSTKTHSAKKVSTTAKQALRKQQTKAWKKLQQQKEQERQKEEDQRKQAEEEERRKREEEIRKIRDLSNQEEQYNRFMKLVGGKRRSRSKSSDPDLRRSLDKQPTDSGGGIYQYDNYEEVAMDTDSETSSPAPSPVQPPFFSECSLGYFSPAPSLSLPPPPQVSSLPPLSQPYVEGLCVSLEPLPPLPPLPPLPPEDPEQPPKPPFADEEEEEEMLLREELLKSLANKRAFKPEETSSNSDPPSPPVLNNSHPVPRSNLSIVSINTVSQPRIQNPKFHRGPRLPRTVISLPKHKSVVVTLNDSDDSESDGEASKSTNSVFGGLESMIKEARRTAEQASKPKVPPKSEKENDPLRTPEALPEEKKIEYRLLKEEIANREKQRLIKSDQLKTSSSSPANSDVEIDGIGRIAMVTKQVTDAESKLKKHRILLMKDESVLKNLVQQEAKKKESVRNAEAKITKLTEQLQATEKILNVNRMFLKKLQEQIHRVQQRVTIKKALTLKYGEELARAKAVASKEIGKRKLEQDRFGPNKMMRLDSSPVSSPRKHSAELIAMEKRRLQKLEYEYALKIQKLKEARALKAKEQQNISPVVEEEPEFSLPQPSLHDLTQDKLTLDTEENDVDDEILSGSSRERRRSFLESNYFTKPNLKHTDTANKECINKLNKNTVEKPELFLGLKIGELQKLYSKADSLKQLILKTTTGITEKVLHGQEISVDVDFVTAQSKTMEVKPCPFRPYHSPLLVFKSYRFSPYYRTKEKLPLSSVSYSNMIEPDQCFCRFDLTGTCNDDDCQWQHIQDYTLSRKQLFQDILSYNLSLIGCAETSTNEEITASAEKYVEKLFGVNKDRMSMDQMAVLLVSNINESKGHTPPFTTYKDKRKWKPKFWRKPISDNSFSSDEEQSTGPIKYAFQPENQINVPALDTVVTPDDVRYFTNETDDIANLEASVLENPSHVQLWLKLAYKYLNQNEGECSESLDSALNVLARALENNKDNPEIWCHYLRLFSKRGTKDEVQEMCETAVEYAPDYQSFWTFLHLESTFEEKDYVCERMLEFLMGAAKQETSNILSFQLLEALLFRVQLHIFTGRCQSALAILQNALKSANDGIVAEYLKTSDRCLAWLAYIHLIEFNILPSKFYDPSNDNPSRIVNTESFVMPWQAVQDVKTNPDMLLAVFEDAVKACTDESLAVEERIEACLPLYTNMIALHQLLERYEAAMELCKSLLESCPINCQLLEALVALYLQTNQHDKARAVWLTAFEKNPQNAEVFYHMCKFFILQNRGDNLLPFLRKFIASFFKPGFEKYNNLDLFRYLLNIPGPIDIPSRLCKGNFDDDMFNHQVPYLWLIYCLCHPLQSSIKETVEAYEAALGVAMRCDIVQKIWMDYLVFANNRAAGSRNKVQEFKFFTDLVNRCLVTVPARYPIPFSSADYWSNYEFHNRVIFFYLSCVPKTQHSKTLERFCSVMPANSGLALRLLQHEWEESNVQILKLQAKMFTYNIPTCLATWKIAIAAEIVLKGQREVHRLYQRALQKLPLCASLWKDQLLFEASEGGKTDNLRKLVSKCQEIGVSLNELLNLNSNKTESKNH
Outline: as §1

T1 sequence (P14854 whole entry): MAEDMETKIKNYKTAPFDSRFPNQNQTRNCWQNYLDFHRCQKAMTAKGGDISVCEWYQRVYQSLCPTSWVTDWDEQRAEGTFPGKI

| Structure (SMILES) | % engagement COX6B1_C54 (COX6B1_C54) | % engagement DCAF1_C1113 (DCAF1_C1113) | % engagement MAGI1_C526 (MAGI1_C526) | % engagement PRXL2A_C85 (PRXL2A_C85) | % engagement REEP5_C18 (REEP5_C18) | % engagement TRMT61A_C209 (TRMT61A_C209) | % engagement ZFC3H1_C1778 (ZFC3H1_C1778) | % engagement PRXL2A_85 (PRXL2A_C85) | % engagement REEP5_18 (REEP5_C18) |
| --- | --- | --- | --- | --- | --- | --- | --- | --- | --- |
| C=CC(=O)N1C[C@H](c2ccc(Br)cc2)[C@H]1C(=O)Nc1cccc2cccnc12 [MY-3B, (2S,3S)-1-acryloyl-3-(4-bromophenyl)-N-(quinolin-8-yl)azetidine-2-carboxamide] | 36.5% | 26.5% | 100% | 98.5% | 91.75% | 56% | −22.75% |  |  |
| C=CC(=O)N1C[C@H](c2ccc(Br)cc2)[C@@H]1C(=O)Nc1cccc2cccnc12 [MY-1B, (2R,3S)-1-acryloyl-3-(4-bromophenyl)-N-(quinolin-8-yl)azetidine-2-carboxamide] | 56% | 68.5% | 32% | 98.75% | 97.5% | 67% | 7% | 91.48% | 79.00% |
| CC#CC(=O)N1C[C@H](c2ccc(Br)cc2)[C@@H]1C(=O)Nc1cccc2cccnc12 [MY-45B, (2R,3S)-3-(4-bromophenyl)-1-(but-2-ynoyl)-N-(quinolin-8-yl)azetidine-2-carboxamide] |  |  |  |  |  |  |  | 86.23% | 22.75% |

Second part, the compound after the results:

| % engagement COX6B1_C54 (COX6B1_C54) | % engagement DCAF1_C1113 (DCAF1_C1113) | % engagement MAGI1_C526 (MAGI1_C526) | % engagement PRXL2A_C85 (PRXL2A_C85) | % engagement REEP5_C18 (REEP5_C18) | % engagement TRMT61A_C209 (TRMT61A_C209) | % engagement ZFC3H1_C1778 (ZFC3H1_C1778) | % engagement PRXL2A_85 (PRXL2A_C85) | % engagement REEP5_18 (REEP5_C18) | Structure (SMILES) |
| --- | --- | --- | --- | --- | --- | --- | --- | --- | --- |
| 33.5% | −1.5% | 2.5% | 97.5% | 88.25% | 18.75% | 47.75% |  |  | C=CC(=O)N1C[C@H](c2ccc(Br)cc2)[C@H]1C(=O)Nc1cccc2cccnc12 [MY-3A, (2S,3S)-1-acryloyl-3-(4-bromophenyl)-N-(quinolin-8-yl)azetidine-2-carboxamide] |
| 66.5% | −18% | 65% | 92.5% | 91.75% | 40.75% | 70.75% |  |  | C=CC(=O)N1C[C@@H](c2ccc(Br)cc2)[C@H]1C(=O)Nc1cccc2cccnc12 [MY-1A, (2S,3R)-1-acryloyl-3-(4-bromophenyl)-N-(quinolin-8-yl)azetidine-2-carboxamide] |
